Consider one molecule from US20020119438A1, “METHOD FOR D[…] CELL COUNT” (priority 1995, published 2002).

Molecules are shown by their SMILES. Converted amounts (≈) assume the structure as drawn.

In assay [1] the test system is MOLT-4 cells. The assay can be described thus: Cytotoxicity assessment by method of the present invention (PO-PRO-1 Iodide fluorescence before/after Triton X-100). The following applies: two days incubation, from viable cell numbers. It counts as cell-based, human.
Assay [2] deals with MOLT-4 cells. The assay can be described thus: Cytotoxicity assessment by MTT assay system. It counts as cell-based, human. The following applies: two days incubation.

`CO[C@@]12[C@H](COC(N)=O)C3=C(C(=O)C(C)=C(N)C3=O)N1C[C@@H]1N[C@@H]12` [Mitomycin C]: the IC50 is 2.2 µg/mL (≈ 6.58 µM) in assay [1] and 5.5 µg/mL (≈ 16.5 µM) in assay [2].

The IC50 is the concentration needed to halve the response being measured. Higher therefore signals weaker potency in that assay.
